Structures can show the parent of a compound that is named as a salt. Active and inactive are the calls of the source.
Experiments:
Cytochrome P450 2C19 = Cytochrome P450 2C19 (Homo sapiens, UniProt P33261); experiment: Cytochrome panel assay with activity outcomes. Panel member name: p450-cyp2c19 Compounds with AC50 equal or less than 10 uM are considered active; assay type: functional; settings: read-out: AC50
Cytochrome P450 2D6 = Cytochrome P450 2D6 (Homo sapiens, UniProt P10635);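 note: CYP2D6 member of a cytochrome P450 panel assay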
Chain of Cytochrome P450 2D6 (P10635 whole entry): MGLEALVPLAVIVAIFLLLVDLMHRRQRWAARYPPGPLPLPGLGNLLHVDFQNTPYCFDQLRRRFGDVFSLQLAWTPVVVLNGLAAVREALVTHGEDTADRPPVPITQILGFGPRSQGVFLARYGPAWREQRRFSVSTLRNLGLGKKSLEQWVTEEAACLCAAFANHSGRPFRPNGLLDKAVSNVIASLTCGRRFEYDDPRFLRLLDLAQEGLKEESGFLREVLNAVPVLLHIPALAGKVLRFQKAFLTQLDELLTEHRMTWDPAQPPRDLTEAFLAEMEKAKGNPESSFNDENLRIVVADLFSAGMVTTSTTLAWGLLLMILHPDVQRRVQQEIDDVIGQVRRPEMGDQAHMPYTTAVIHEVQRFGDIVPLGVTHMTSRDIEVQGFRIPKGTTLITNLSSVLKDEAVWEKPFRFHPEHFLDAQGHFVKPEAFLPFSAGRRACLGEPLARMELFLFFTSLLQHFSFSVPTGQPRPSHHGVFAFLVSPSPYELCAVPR

Cytochrome P450 3A4 = Cytochrome P450 3A4 (Homo sapiens, UniProt P08684);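 note: CYP3A4 tested as one member of a cytochrome P450 panel screen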
Chain of Cytochrome P450 3A4 (P08684 whole entry): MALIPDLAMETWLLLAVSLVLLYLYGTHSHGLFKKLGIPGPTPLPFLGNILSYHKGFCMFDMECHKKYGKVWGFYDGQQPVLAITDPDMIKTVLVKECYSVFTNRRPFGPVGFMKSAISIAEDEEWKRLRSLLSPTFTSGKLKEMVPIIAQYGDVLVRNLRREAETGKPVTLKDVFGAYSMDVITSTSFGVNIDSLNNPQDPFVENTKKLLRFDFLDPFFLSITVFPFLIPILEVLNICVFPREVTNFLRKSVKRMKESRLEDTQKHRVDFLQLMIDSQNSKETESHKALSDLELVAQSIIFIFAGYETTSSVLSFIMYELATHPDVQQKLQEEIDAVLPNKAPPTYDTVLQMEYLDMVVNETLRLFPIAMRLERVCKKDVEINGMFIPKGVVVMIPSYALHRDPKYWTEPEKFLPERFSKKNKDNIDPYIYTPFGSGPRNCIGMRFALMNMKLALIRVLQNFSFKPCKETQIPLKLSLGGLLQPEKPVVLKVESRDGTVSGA

cells [1] = assay type: functional, cell-based
cells [2] = assay type: functional, cell-based; remark: listed apart in the source
H9c2 = experiment: cells; assay type: functional, cell-based; settings: Rattus norvegicus, H9c2, Myocardium;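 note: confirmatory concentration-response retest of ultra-high-throughput screening hits for modulation of myocardial damage; cell death induced by hydrogen peroxide oxidative stress; compound pretreatment for 60 min then peroxide exposure for 2 h; potency is for protecting the cells against peroxide damage rather than for killing them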
[3] = Trypanosoma cruzi growth suppression in host cells – NIH3T3 host cells, beta-gal luminescence, confirmation (AID 2044); assay type: functional, cell-based;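 note: intracellular parasites grown in NIH/3T3 mouse fibroblasts as host cells; luminescent beta-galactosidase reporter signal from transgenic T. cruzi replicating inside host cells; inhibitors lower the luminescence signal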
[4] = NIH3T3 cell viability loss – ATP luminescence, mouse fibroblasts, counter-screen, dose response (AID 2010); assay type: functional, cell-based;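 note: cells exposed to compound for about 90 hours before reading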
[5] = biological target: Heat shock protein HSP 90-alpha (Homo sapiens, UniProt P07900); assay type: functional, organism-based
Cytochrome P450 2C9 = Cytochrome P450 2C9 (Homo sapiens, UniProt P11712)
Chain of Cytochrome P450 2C9 (P11712 whole entry): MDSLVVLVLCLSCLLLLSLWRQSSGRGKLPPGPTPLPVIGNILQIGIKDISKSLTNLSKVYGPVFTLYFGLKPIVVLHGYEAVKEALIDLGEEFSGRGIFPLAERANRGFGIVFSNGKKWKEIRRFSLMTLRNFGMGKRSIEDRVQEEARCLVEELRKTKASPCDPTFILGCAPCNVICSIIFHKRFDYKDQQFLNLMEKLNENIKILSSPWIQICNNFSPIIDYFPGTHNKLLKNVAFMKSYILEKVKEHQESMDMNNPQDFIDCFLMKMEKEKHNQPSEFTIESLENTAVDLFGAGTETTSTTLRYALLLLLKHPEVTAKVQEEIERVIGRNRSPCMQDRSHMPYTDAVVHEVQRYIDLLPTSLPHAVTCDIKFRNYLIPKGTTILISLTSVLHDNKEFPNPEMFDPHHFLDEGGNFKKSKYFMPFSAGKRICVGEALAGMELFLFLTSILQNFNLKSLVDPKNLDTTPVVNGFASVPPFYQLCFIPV

[6] = system: Streptococcus sp. 'group A'; experiment: Streptococcus pyogenes SK(-)GAS viability under kanamycin – luminescence, BacTiterGlo, confirmation, counter-screen for streptokinase expression inhibitor project, dose response (AID 1900); assay type: functional, organism-based; settings: read-out: EC50
Streptokinase A = biological target: T1, Streptokinase A (Streptococcus pyogenes serotype M1, UniProt P10520); experiment: viability-normalized secreted streptokinase activity reduction – plasminogen activation absorbance, OD405, dose response (AID 1914); assay type: functional, Streptococcus pyogenes M1 GAS;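 note: secreted streptokinase activity via plasminogen activation per viability signal from cell pellet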
T1 sequence (P10520 whole entry): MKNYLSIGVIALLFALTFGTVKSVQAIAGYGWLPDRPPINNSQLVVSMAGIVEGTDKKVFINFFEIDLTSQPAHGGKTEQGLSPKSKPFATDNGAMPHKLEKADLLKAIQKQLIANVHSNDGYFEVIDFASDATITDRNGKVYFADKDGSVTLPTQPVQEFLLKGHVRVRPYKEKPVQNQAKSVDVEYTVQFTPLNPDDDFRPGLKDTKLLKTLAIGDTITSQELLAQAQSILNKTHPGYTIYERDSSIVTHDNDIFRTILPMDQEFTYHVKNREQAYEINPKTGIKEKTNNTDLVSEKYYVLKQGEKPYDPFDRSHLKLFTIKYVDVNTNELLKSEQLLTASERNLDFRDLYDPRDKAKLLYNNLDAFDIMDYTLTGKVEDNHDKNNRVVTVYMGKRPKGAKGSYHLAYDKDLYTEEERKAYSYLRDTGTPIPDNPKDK

Streptococcus = experiment: GAS UMAA2166 growth inhibition – luminescence, BacTiterGlo, counter-screen for streptokinase expression inhibitor project, dose response (AID 1915); assay type: functional, organism-based;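 note: potency for reduction of bacterial viability or growth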
[7] = viability of uninfected HEp-2 cells – cell-based, HTS, cytotoxicity control for RSV inhibitor project, dose response (AID 2410); assay type: functional; settings: human respiratory syncytial virus
Cytochrome P450 1A2 = biological target: T2, Cytochrome P450 1A2 (Homo sapiens, UniProt P05177);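 note: PubChem cytochrome P450 panel assay, CYP1A2 panel member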
T2 sequence (P05177 whole entry): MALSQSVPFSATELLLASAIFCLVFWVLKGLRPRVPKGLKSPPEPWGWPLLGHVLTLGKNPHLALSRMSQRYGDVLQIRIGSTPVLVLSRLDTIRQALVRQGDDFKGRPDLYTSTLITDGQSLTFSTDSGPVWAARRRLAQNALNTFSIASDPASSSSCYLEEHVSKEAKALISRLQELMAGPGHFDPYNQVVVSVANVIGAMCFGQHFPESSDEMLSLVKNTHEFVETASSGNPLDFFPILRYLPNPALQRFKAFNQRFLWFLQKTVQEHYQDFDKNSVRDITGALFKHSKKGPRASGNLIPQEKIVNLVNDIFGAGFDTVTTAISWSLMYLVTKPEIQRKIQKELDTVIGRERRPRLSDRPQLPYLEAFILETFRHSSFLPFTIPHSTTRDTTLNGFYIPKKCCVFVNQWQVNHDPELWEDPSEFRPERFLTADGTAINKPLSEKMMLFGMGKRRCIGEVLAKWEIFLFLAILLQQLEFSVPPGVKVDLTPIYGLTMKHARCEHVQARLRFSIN

[8] = Luminescence Cell-Based Dose Confirmation HTS to Identify Activators of 5'UTR Stem-Loop Driven Alpha-Synuclein mRNA Translation in H4 Neuroglioblastoma Cells. [Related pubchem assays: 1829 (Project Summary), 1814 (Primary HTS)]; assay type: functional
[9] = Luminescence Cell-Based Dose Response HTS to Identify Activators of Luciferase Translation or Activity in H4 […] Cells. [Related pubchem assays: 1829 (Project Summary), 1814 (Primary HTS)]; assay type: functional
H4 = experiment: Luminescence Cell-Based Dose Response HTS to Identify Activators of 5'UTR Stem-Loop Driven Prion Protein mRNA Translation in H4 Neuroglioblastoma Cells. [Related pubchem assays: 1829 (Project Summary), 1814 (Primary HTS)]; assay type: functional; settings: Homo sapiens
P388/ADR = experiment: cells; assay type: functional; settings: Mus musculus
SN12K1 = experiment: cells; assay type: functional; settings: Homo sapiens
P388 = experiment: cells; assay type: functional; settings: Mus musculus
[10] = biological target: T3, RNA-binding protein pos-1 (Caenorhabditis elegans, UniProt G5EF15); experiment: disruptors of C. elegans POS-1 RNA interaction – biochemical, fluorescence polarization, dose response (AID 1964);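 note: purified POS-1 fused to maltose binding protein made in E. coli; potency of compounds blocking POS-1 binding to fluorescent RNA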
T3 sequence (G5EF15 whole entry): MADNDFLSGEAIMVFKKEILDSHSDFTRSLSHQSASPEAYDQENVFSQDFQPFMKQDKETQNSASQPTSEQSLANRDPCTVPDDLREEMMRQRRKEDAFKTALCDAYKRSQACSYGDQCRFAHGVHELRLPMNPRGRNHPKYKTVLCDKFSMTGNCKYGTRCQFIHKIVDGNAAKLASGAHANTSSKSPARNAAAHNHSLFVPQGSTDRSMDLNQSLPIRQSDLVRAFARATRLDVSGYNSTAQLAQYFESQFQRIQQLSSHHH

[11] = NIH-3T3 fibroblast cytotoxicity, dose response, cytotoxicity control, cell-based, fluorescence, Alamar Blue, secondary assay (AID 2327); assay type: functional;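 note: NIH-3T3 mouse fibroblasts cultured with fluconazole at 8 µg/mL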
[12] = fluconazole-exposed Candida albicans growth modulators – fluorescence, retest, confirmation (AID 2467); assay type: functional, cell-based

Chain of Cytochrome P450 2C19 (P33261 whole entry): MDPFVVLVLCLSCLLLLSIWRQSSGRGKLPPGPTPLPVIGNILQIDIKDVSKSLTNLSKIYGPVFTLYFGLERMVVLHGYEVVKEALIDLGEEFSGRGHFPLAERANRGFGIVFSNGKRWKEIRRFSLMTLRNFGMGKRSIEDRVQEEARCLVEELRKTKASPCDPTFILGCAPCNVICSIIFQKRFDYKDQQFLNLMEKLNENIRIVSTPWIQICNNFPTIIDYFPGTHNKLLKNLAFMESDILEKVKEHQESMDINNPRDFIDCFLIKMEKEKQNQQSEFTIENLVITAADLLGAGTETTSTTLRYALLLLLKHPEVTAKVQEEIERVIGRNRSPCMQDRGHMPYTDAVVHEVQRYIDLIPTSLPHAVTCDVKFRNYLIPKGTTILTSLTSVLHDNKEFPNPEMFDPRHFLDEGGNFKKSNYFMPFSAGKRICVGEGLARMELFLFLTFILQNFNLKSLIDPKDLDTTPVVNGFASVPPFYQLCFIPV

CCCN1C(=O)C(NC(C)=O)c2cc(OC)ccc21 (configuration not stated)
AC50 (Cytochrome P450 2C19): 22.4 µM (inconclusive)
AC50 (Cytochrome P450 2D6): 0.00562 µM (inconclusive)
AC50 (Cytochrome P450 3A4): 22.4 µM (inconclusive)

Cc1ccc(C(=O)CSc2cc(C)nc(O)n2)cc1
EC50 (cells [1]): > 350 µM (not active)
EC50 (cells [2]): > 350 µM (not active)

COC(=O)[C@@]1(Cc2ccccc2)[C@H]2c3cc(C(=O)N(C)C)n(Cc4cc(F)c(F)c(F)c4)c3C[C@H]2CN1C(=O)c1ccccc1
AC50 (Cytochrome P450 2D6): 25.1 µM (inconclusive)

CC1CCCN(Cc2nc3c(c(=O)n(C)c(=O)n3C)n2CCCc2ccccc2)C1 (configuration not stated)
IC50 (H9c2): 12.4 µM (active)

O=C(Nc1cc(Cl)ccc1-n1cncn1)c1ccc([N+](=O)[O-])s1
EC50 [3]: 0.207 µM (active)
EC50 [4]: > 60 µM (not active)
AC50 [5]: 3.72 µM (active)

Oc1ccc(Cl)cc1CNCC1CCCO1 (configuration not stated)
EC50 (cells [1]): > 350 µM (not active)
EC50 (cells [2]): > 350 µM (not active)

CC1(C)CC(=O)C(CC2C(=O)CC(C)(C)CC2=O)C(=O)C1
EC50 (cells [1]): > 350 µM (not active)
EC50 (cells [2]): 98.1 µM (active)

O=C1c2ccccc2NC(c2c[nH]nc2-c2ccccc2)N1O (configuration not stated)
IC50 (H9c2): 20.8 µM (active)

c1ccc(-c2ccc(N3CC[C@@]4(CCCNC4)C3)cc2)cc1
AC50 (Cytochrome P450 2C19): 20 µM (inconclusive)
AC50 (Cytochrome P450 2D6): 39.8 µM (inconclusive)

CC(C(=O)N1CCOCC1)N1c2cccc3cccc(c23)S1(=O)=O (configuration not stated)
EC50 (cells [1]): > 350 µM (not active)
EC50 (cells [2]): > 350 µM (not active)

N=C(NOC(=O)C(c1ccccc1)c1ccccc1)c1cccnc1
EC50 (cells [1]): > 350 µM (not active)
EC50 (cells [2]): > 350 µM (not active)

COc1ccc(S(=O)(=O)N(C(=O)c2ccncc2)c2ccc(OC(=O)c3ccncc3)cc2)cc1
AC50 [5]: 1.65 µM (active)

Cc1oc(-c2ccc(Cl)cc2)nc1C[S+]([O-])CC(=O)NCCN1CCCCCC1 (configuration not stated)
EC50 (cells [1]): > 350 µM (not active)
EC50 (cells [2]): > 350 µM (not active)

COc1ccc(-c2nn(-c3ccccc3)cc2C(=O)N2CCN(S(=O)(=O)c3cccc(F)c3)CC2)cc1
AC50 [5]: 2.04 µM (active)

COc1ccc(/C=C2\N=C(c3c(-c4ccccc4)noc3C)OC2=O)cc1OC
AC50 (Cytochrome P450 2C19): 28.2 µM (inconclusive)
AC50 (Cytochrome P450 2D6): 20 µM (inconclusive)
AC50 (Cytochrome P450 2C9): 1 µM (inconclusive)

COc1ccc2nc(NC(=O)CSc3nccc(C)n3)sc2c1
EC50 (cells [1]): > 350 µM (not active)
EC50 (cells [2]): > 350 µM (not active)

CCCCCN(C(=O)CCC(=O)OCC(=O)c1ccc(C(C)CC)cc1)c1c(N)n(CCCC)c(=O)[nH]c1=O (configuration not stated)
EC50 (cells [1]): > 350 µM (not active)
EC50 (cells [2]): > 350 µM (not active)

Cc1ccc2nc(-c3ccc(NS(=O)(=O)c4ccc(F)cc4)cc3)sc2c1
EC50 [6]: 3.12 µM (active)
EC50 (Streptokinase A): > 150 µM (not active)
EC50 (Streptococcus): 5.33 µM (active)
AC50 [5]: 4.57 µM (active)

CSc1nnc2c3cc(F)ccc3n(C)c2n1
CC50 [7]: 30 µM (active)
AC50 [5]: 5.56 µM (active)

CCOC(=O)C1C(=O)NC(SCC(=O)OC)=C(C#N)C1c1ccccc1OCC (configuration not stated)
IC50 (H9c2): 67.2 µM (inactive)

CCCc1cc2c(n1Cc1ccc(OC)cc1)C(C)C1CN(C(=O)c3ccccc3)C(C)(C(=O)OC)C21 (configuration not stated)
AC50 (Cytochrome P450 2C19): 0.00631 µM (inconclusive)
AC50 (Cytochrome P450 2D6): 39.8 µM (inconclusive)
AC50 (Cytochrome P450 1A2): 15.8 µM (inconclusive)

CC(C)n1nnnc1SCC(=O)c1ccc2c(c1)OCCO2
EC50 [8]: 0.276 µM (active)
EC50 [9]: 0.624 µM (active)
EC50 (H4): > 120 µM (not active)
AC50 (Cytochrome P450 2D6): 14.1 µM (inconclusive)
AC50 (Cytochrome P450 2C9): 17.8 µM (inconclusive)

Cc1nc(O)nc(O)c1/C=C/C(=O)O
GI50 (P388/ADR): > 1000 µM (inactive)
GI50 (SN12K1): > 1000 µM (inactive)
GI50 (P388): 631 µM (inactive)

CN(C)c1nc(-c2cccc(NS(C)(=O)=O)c2)nc2ccccc12
AC50 (Cytochrome P450 2C19): 20 µM (inconclusive)
AC50 (Cytochrome P450 2D6): 25.1 µM (inconclusive)

CCOc1ccc(N2C(=O)/C(=C/c3ccco3)C(=O)NC2=S)cc1
EC50 [10]: 55.3 µM (active)

COc1ccccc1CCn1c(=O)c(-c2ccc(F)c(F)c2)nc2cncnc21
AC50 (Cytochrome P450 2D6): 31.6 µM (inconclusive)

Nc1nncs1
GI50 (P388/ADR): 665 µM (inactive)
GI50 (SN12K1): 2120 µM (inactive)
GI50 (P388): 711 µM (inactive)

CC(=O)c1ccc(-c2cnc3c(NC=O)cc(-c4ccc(C(=O)NC5CC5)cc4)cn23)cc1
IC50 (H9c2): > 79 µM (inactive)

COc1cccc(/C=N/Nc2cc(-n3nc(C)cc3-c3ccccc3)ncn2)c1O
EC50 [11]: 61 µM (active)
EC50 (cells [1]): > 350 µM (not active)
EC50 [12]: 1.57 µM (active)
EC50 (cells [2]): > 350 µM (not active)

Cc1cc(NC(=S)Nc2ccccc2)c(NC(=S)Nc2ccccc2)cc1C
GI50 (P388/ADR): 3.3 µM (inactive)
GI50 (SN12K1): 18.5 µM (inactive)
GI50 (P388): 1.41 µM (inactive)

CC1C(=O)C(C)C(c2ccco2)N(N=O)C1c1ccco1 (configuration not stated)
GI50 (P388/ADR): 63.4 µM (inactive)
GI50 (SN12K1): > 100 µM (inactive)
GI50 (P388): > 100 µM (inactive)

CC1=C2C(O)C(C(C)C(=O)N(C)C)CCC2(C)C=CC1=O (configuration not stated)
GI50 (P388/ADR): > 100 µM (inactive)
GI50 (SN12K1): > 100 µM (inactive)
GI50 (P388): > 100 µM (inactive)

Cc1cccc(C(=O)N/N=C2\CS(=O)(=O)N(C)c3ccsc32)c1
IC50 (H9c2): > 79 µM (inactive)

CCCCCC(O)C1C(=O)OC(C)C(O)/C=C/C=C/C=C/C=C/C=C(\C)C(O)C(O)C(O)CC(O)CC(O)CC(O)CC(O)CC1O (configuration not stated)
GI50 (P388/ADR): 1.95 µM (inactive)
GI50 (SN12K1): 1.44 µM (inactive)
GI50 (P388): 0.904 µM (active)

COc1cc(/C=C/C(=O)Oc2ccccc2)ccc1C(=O)O/C=C/c1ccccc1
GI50 (P388/ADR): 0.83 µM (active)
GI50 (SN12K1): > 100 µM (inactive)
GI50 (P388): 3.78 µM (inactive)

O=C(CCN1CCOCC1)/C(=C/c1ccccc1)c1ccccc1
GI50 (P388/ADR): 1.11 µM (active)
GI50 (SN12K1): 3.03 µM (inactive)
GI50 (P388): 2.29 µM (inactive)

CC(C)NC(=O)OCc1c(COC(=O)NC(C)C)c(-c2ccc(Cl)c(Cl)c2)n2c1CCC2
GI50 (P388/ADR): > 100 µM (inactive)
GI50 (SN12K1): > 100 µM (inactive)
GI50 (P388): > 100 µM (inactive)

CC[C@]1(O)C[C@H]2CN(CCc3c([nH]c4ccccc34)[C@@](C(=O)OC)(c3cc4c(cc3OC)N(C=O)[C@H]3[C@@](O)(C(=O)OC)[C@H](OC(C)=O)[C@]5(CC)C=CCN6CC[C@]43[C@@H]65)C2)C1 [VINCRISTINE SULFATE]
GI50 (P388/ADR): 0.171 µM (active)
GI50 (SN12K1): 0.1 µM (active)
GI50 (P388): 0.1 µM (active)
